Data taken from PMC11193793 (Scientific Reports, 2024).
Where two headings read alike, the source gives them in different places.

Key:
recombinant human COX-2 = biological target: T1, recombinant human COX-2 (Homo sapiens, UniProt P35354); assay: biochemical; details: for Selectivity index (SI): COX-2 selectivity from COX-1 and COX-2 IC50
T1 sequence (P35354 18-604): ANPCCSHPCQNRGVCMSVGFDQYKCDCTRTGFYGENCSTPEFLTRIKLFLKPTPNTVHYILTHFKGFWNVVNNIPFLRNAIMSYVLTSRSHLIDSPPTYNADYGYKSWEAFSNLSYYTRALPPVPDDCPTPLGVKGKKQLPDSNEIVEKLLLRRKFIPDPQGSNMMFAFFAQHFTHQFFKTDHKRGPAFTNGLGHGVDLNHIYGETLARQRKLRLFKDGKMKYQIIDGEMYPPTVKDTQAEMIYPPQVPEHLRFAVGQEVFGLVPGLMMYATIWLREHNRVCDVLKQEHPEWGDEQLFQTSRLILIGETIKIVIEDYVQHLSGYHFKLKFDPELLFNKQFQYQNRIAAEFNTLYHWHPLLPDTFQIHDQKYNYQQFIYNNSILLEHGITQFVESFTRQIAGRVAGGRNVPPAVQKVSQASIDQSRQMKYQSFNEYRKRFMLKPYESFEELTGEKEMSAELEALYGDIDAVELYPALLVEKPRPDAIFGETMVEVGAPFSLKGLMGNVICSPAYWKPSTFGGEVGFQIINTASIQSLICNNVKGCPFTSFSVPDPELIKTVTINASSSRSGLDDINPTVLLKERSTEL
Description: (§1) The full method is provided in the Supplementary materials.
(§2) Serial dilutions (100, 10, 1, 0.1, and 0.01 µg/mL) of the F. solani extract and the isolated metabolites were prepared and solvated in DMSO, then estimated for their abilities to inhibit the synthesis of prostaglandin using the kits for screening test for COX inhibitors (BioVision, Inc., USA, Mountain View, Catalog # K548-100 and Catalog # K547-100, for COX- […]
(§3) The investigational methodology was carried out following the provider’s recommendations. Arachidonic acid is being converted into prostaglandin (PGH2) by the cyclooxygenase enzyme (COX). During the reduction, the PGF2α formed in PGH2 via stannous chloride was evaluated via ELISA (enzyme-linked immunoassay). This bioassay is based on the competition among an antibody; PGspecific and a cholinesterase conjugate; PG-acetyl. The developed (antibody-PG) was combined with an acetylcholinesterase substrate included in Ellman's reagent. Each sample (20 µL) was used, (10 µL) heme, and (10 µL) enzyme, were combined to the reaction buffer solution (160 µL) formed of (2 mM phenol and 5 mM ethylenediamine tetra acetate (EDTA) in 0.1 M Tris-HCl, pH 8), followed by incubation of the mixture in a water bath at 37 °C for 10 min. Subsequently, starting the COX reaction was done by adding 10 µL of arachidonic acid, with a final concentration of […], to the reaction mixture.
(§4) Later, the COX reactions were ended after 2 min by adding saturated stannous chloride (30 µL), then inoculate for 5 min at room temperature. Afterwards, the PGF2α level was measured using ELISA. Subsequent move to a 96-well plate, inoculate the samples at room temperature for 18 h, then wash the plate to eliminate any residual reagents, followed by the addition of Ellman’s reagent (200 µL) which contains an acetylcholinesterase substrate, and incubation at room temperature for 60 to 90 min. A spectrophotometer with a microplate reader at 410 nm was used to measure the produced color at 410 […]
(§5) The data mean values from three measurements were used to calculate IC50 values. […]

ovine COX-1 = biological target: T2, ovine COX-1 (Ovis aries, UniProt P05979); assay: biochemical
T2 sequence (P05979 25-600): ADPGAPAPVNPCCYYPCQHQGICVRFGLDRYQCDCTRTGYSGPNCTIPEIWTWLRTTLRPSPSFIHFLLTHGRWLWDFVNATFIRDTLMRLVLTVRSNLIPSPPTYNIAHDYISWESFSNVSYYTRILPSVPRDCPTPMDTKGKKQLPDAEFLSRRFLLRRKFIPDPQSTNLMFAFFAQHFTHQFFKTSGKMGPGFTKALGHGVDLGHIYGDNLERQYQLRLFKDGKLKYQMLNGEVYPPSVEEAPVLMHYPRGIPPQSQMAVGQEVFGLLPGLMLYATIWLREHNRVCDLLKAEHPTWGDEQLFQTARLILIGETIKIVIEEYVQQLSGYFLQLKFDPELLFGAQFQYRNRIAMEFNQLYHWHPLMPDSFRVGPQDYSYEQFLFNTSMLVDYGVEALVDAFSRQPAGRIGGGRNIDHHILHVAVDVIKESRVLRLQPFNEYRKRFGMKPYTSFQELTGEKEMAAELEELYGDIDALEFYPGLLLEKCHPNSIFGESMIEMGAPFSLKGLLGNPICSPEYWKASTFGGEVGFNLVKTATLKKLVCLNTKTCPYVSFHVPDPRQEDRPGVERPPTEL
Description: as §1, §2, §3, §4, §5

tyrosinase enzyme = assay: Tyrosinase inhibitory assay (L-DOPA substrate, BioVision kit); format: biochemical; details: mean ± SEM, triplicate
Description: The anti-tyrosinase capacities of the F. solani extract together with the six isolated metabolites were investigated via evaluating their inhibitory activities against tyrosinase enzyme. The full method is provided in the Supplementary materials. […]
Tyrosinase inhibitory assay
The anti-tyrosinase capacities of the F. solani extract together with the six isolated metabolites were investigated via evaluating their inhibitory activities against tyrosinase enzyme using the kits for screening test of tyrosinase enzyme inhibition (BioVision, Inc., USA, Mountain View, Catalog # K575-100).
First, all samples were dissolved using DMSO (reference drug, EtOAc extract and the isolated compounds) preparing different concentrations. The assay of tyrosinase inhibition was done as previously reported 3. The mixture of assay composed of test solution (1900 μL) in (0.1 M) buffer phosphate pH 6.8 and freshly prepared enzyme solution (100 μL) which is composed of 15 U/mL in (0.1 M) buffer phosphate pH 6.8. The 30 min. of room temperature after pre-incubation, the reaction was started by adding substrate solution (1000 μL) which composed of L-DOPA (1.5 Mm) in buffer phosphate (0.1 M) pH 6.8. After 7 minutes of room temperature incubation, the mixture of the assay was analyzed for absorbance at […]
510 nm. […] The activity of tyrosinase inhibition
(The activity of the enzyme together with the tested samples). The mean values of the data from three measurements were used to calculate IC50 values.

[1] = mean ± SEM, triplicate, read-out: IC50 COX-2
[2] = mean ± SEM, triplicate, read-out: IC50 COX-1

| Compound | Selectivity index (SI) (recombinant human COX-2) | IC50 (recombinant human COX-2; [1]) | IC50 (ovine COX-1) | IC50 (tyrosinase enzyme) | IC50 (tyrosinase enzyme; listed as malic acid) | IC50 (ovine COX-1; [2]) | IC50 (tyrosinase enzyme; listed as 4-hydroxybenzaldehyde) | IC50 (tyrosinase enzyme; listed as 4-hydroxybenzaldehyde (1)) | IC50 (recombinant human COX-2) |
| --- | --- | --- | --- | --- | --- | --- | --- | --- | --- |
| CCCCc1ccc(C(=O)O)nc1 [Fusaric acid (6), fusaric acid] | 0.8 | 4.81 ± 0.14 µM | 3.86 ± 0.05 µM | 13.4 ± 0.27 µM |  |  |  |  |  |
| O=C(O)CC(O)C(=O)O (stereo not drawn) [Malic acid (5), malic acid] |  | 10.4 ± 0.3 µM | 51 ± 0.86 µM | 87.5 ± 1.84 µM | > 50 µM |  |  |  |  |
| O=Cc1ccc(O)cc1 [4-Hydroxybenzaldehyde (1), 4-hydroxybenzaldehyde] | 2.9 | 8.87 ± 0.26 µM |  |  |  | 25.7 ± 0.55 µM | > 50 µM | 70.6 ± 1.49 µM |  |
| O=C(O)CCCCCCCC(=O)O [Azelaic acid (4), azelaic acid] | 5.24 | 2.21 ± 0.06 µM |  | 8.75 ± 0.18 µM |  | 11.6 ± 0.29 µM |  |  |  |
| O=C(O)c1ccc(O)cc1 [4-Hydroxybenzoic acid (2), 4-hydroxybenzoic acid] |  | 28.4 ± 0.76 µM |  | 25.4 ± 0.53 µM |  | 44.5 ± 0.92 µM |  |  |  |
| OCCc1ccc(O)cc1 [Tyrosol (3), tyrosol] | 4.49 |  | 23.9 ± 0.38 µM | 11.3 ± 0.24 µM |  |  |  |  | 5.31 ± 0.15 µM |
